Experimental data from ChEMBL document CHEMBL3046207, “Synthesis of a new series of 2-(2-oxo-2H-chromen-3-yl)-5H-chromeno[4,3-b]pyridin-5-ones by two facile methods and evaluation of their antimicrobial activity” (2013).
In brackets after ≈: the same amount, converted by molar mass.

Columns and labels:
Salmonella typhimurium = experiment: Antibacterial activity against Salmonella enterica typhimurium MTCC 98 by broth dilution method; assay type: functional, Salmonella enterica subsp. enterica serovar Typhimurium
Aspergillus niger = experiment: Antifungal activity against Aspergillus niger MTCC 282 by broth dilution method; assay type: functional
Bacillus subtilis = experiment: Antibacterial activity against Bacillus subtilis MTCC 441 by broth dilution method; assay type: functional
Candida albicans = experiment: Antifungal activity against Candida albicans MTCC 227 by broth dilution method; assay type: functional
Escherichia coli = experiment: Antibacterial activity against Escherichia coli MTCC 443 by broth dilution method; assay type: functional
Staphylococcus aureus = experiment: Antibacterial activity against Staphylococcus aureus MTCC 96 by broth dilution method; assay type: functional

Molecule	MIC (Salmonella typhimurium) [µg/mL]	MIC (Aspergillus niger) [µg/mL]	MIC (Bacillus subtilis) [µg/mL]	MIC (Candida albicans) [µg/mL]	MIC (Escherichia coli) [µg/mL]	MIC (Staphylococcus aureus) [µg/mL]
COc1cccc2cc(-c3ccc4c(=O)oc5ccc(Cl)cc5c4n3)c(=O)oc12	250 (≈ 616 µM)	500 (≈ 1230 µM)	62.5 (≈ 154 µM)	> 1000	200 (≈ 493 µM)	200 (≈ 493 µM)
O=c1oc2ccccc2cc1-c1ccc2c(=O)oc3ccc(Cl)cc3c2n1	100 (≈ 266 µM)	> 1000	200 (≈ 532 µM)	> 1000	125 (≈ 333 µM)	125 (≈ 333 µM)
Cc1cccc2c1oc(=O)c1ccc(-c3cc4ccccc4oc3=O)nc12	250 (≈ 704 µM)	> 1000	250 (≈ 704 µM)	500 (≈ 1410 µM)	200 (≈ 563 µM)	200 (≈ 563 µM)
Cc1ccc2oc(=O)c3ccc(-c4cc5c(ccc6ccccc65)oc4=O)nc3c2c1	250 (≈ 617 µM)	500 (≈ 1230 µM)	200 (≈ 493 µM)	1000 (≈ 2470 µM)	250 (≈ 617 µM)	62.5 (≈ 154 µM)
COc1cccc2cc(-c3ccc4c(=O)oc5c(C)cccc5c4n3)c(=O)oc12	250 (≈ 649 µM)	> 1000	125 (≈ 324 µM)	200 (≈ 519 µM)	250 (≈ 649 µM)	250 (≈ 649 µM)
CC1(C)S[C@@H]2[C@H](NC(=O)[C@H](N)c3ccccc3)C(=O)N2[C@H]1C(=O)O [AMPICILLIN]	100 (≈ 286 µM)	–	250 (≈ 715 µM)	–	100 (≈ 286 µM)	250 (≈ 715 µM)
COC1=CC(=O)C[C@@H](C)[C@]12Oc1c(Cl)c(OC)cc(OC)c1C2=O [GRISEOFULVIN]	–	100 (≈ 283 µM)	–	500 (≈ 1420 µM)	–	–
COc1cccc2cc(-c3ccc4c(=O)oc5ccc(C)cc5c4n3)c(=O)oc12	200 (≈ 519 µM)	500 (≈ 1300 µM)	62.5 (≈ 162 µM)	1000 (≈ 2590 µM)	250 (≈ 649 µM)	100 (≈ 259 µM)
Cc1cccc2c1oc(=O)c1ccc(-c3cc4c(ccc5ccccc54)oc3=O)nc12	100 (≈ 247 µM)	> 1000	125 (≈ 308 µM)	1000 (≈ 2470 µM)	62.5 (≈ 154 µM)	100 (≈ 247 µM)
NYSTATIN	–	100	–	100	–	–
O=c1oc2ccccc2cc1-c1ccc2c(=O)oc3ccccc3c2n1	200 (≈ 586 µM)	500 (≈ 1460 µM)	250 (≈ 732 µM)	1000 (≈ 2930 µM)	125 (≈ 366 µM)	200 (≈ 586 µM)
O=c1oc2ccc3ccccc3c2cc1-c1ccc2c(=O)oc3ccccc3c2n1	200 (≈ 511 µM)	> 1000	125 (≈ 319 µM)	250 (≈ 639 µM)	250 (≈ 639 µM)	100 (≈ 256 µM)
O=c1oc2ccc3ccccc3c2cc1-c1ccc2c(=O)oc3ccc(Cl)cc3c2n1	100 (≈ 235 µM)	1000 (≈ 2350 µM)	200 (≈ 470 µM)	500 (≈ 1170 µM)	62.5 (≈ 147 µM)	62.5 (≈ 147 µM)
CCn1cc(C(=O)O)c(=O)c2cc(F)c(N3CCNCC3)cc21 [NORFLOXACIN]	10 (≈ 31.3 µM)	–	100 (≈ 313 µM)	–	10 (≈ 31.3 µM)	10 (≈ 31.3 µM)
Cc1ccc2oc(=O)c3ccc(-c4cc5ccccc5oc4=O)nc3c2c1	125 (≈ 352 µM)	> 1000	200 (≈ 563 µM)	500 (≈ 1410 µM)	125 (≈ 352 µM)	250 (≈ 704 µM)
COc1cccc2cc(-c3ccc4c(=O)oc5ccccc5c4n3)c(=O)oc12	250 (≈ 673 µM)	1000 (≈ 2690 µM)	200 (≈ 539 µM)	1000 (≈ 2690 µM)	200 (≈ 539 µM)	100 (≈ 269 µM)
